According to patent US10829487B2, “Benzylamino substituted pyridopyrimidinones and derivatives as SOS1 inhibitors” (Boehringer Ingelheim International GmbH, priority 2017, dated 2020):

Key:
[1] = system: ERK phosphorylation in DLD-1 cells (KRAS G13D); test: ERK Phosphorylation Assay (AlphaLISA SureFire Ultra p-ERK1/2); assay type: cell-based; conditions: Homo sapiens, 1 h compound, EGF 50 ng/mL 10 min, read-out: pERK
Protocol: ERK Phosphorylation Assay
Low IC50 values are indicative of high potency of the SOS1 inhibitor compounds in this assay setting.
ERK phosphorylation assays are performed using the following human cell lines: DLD-1 (ATCC CCL-221): human colon cancer with a KRAS G13D mutation;
DLD-1 cells (ATCC CCL-221) are seeded at 50,000 cells per well in/60 μL of RPMI with 10% FBS, non-essential amino acids, pyruvate and glutamax in Greiner TC 384 plates. The cells are incubated for 1 h at room temperature and then incubated overnight in an incubator at 37° C. and 5% CO2 in a humidified atmosphere. 60 nL compound solution (10 mM DMSO stock solution) is then added using a Labcyte Echo 550 device. After a 1 h incubation in the aforementioned incubator, 3 μL Epidermal Growth Factor (EGF, final concentration 50 ng/mL) is added. 10 minutes later the medium is removed, and the cells lysed by addition of 20 μL of 1.6-fold lysis buffer from the AlphaLISA SureFire Ultra pERK1/2 (Thr202/Tyr204) Assay Kit with added protease inhibitors, 100 nM trametinib+100 nM staurosporine. After 20 minutes of incubation at room temperature with shaking, 6 μL of each lysate sample is transferred to a 384-well Proxiplate and analyzed for pERK (Thr202/Tyr204) with the AlphaLISA SureFire Ultra pERK1/2 (Thr202/Tyr204) Assay Kit. 3 μL Acceptor Mix and 3 μL Donor Mix are added under subdued light and incubated for 2 h at room temperature in the dark, before the signal is measured on a Perkin Elmer Envision plate reader using 384 AlphaScreen settings for Proxiplates. Data are fitted by iterative calculation with variable hill slope. The sigmoidal curve slope is fitted using a default fitting curve to ascertain IC50 values.

[2] = target: protein-protein interaction between SOS1 and KRAS G12D (Homo sapiens (Human), UniProt Q07889); test: KRAS::SOS1 AlphaScreen Binding Assay
Description: KRAS::SOS1 AlphaScreen Binding Assay
Low IC50 values are indicative of high potency of the SOS1 inhibitor compound in this assay setting:
Reagents: • GST-tagged SOS1 (564_1049_GST_TEV_ECO) produced in-house • GST-TEV-SOS1 (564-1049) is purchased from Viva Biotech Ltd. • 6×His-Tev-K-RasG12D(1-169)Avi is purchased from Xtal BioStructures, Inc. (Lot # X129-110) • GDP (Sigma Cat No G7127) • AlphaLISA Glutathione Acceptor Beads (PerkinElmer, Cat No AL109) • AlphaScreen Streptavidin Donor Beads (PerkinElmer Cat No 6760002) • Assay plates: Proxiplate-384 PLUS, white (PerkinElmer, Cat No 6008289)
10 nM (final assay concentration) KRAS G12D, 10 μM (final assay concentration) GDP and 5 nM (final assay concentration) GST-SOS1 are mixed in assay buffer prior to use and kept at room temperature.
AlphaLISA Glutathione Acceptor Beads and AlphaScreen Streptavidin Donor Beads are mixed in assay buffer at a concentration of 10 μg/mL (final assay concentration) each prior to use and kept at room temperature.
Compounds are diluted to a final start concentration of 100 μM and are tested in duplicate. Assay-ready plates (ARPs) are generated using an Access Labcyte Workstation with a Labcyte Echo 550 or 555 accoustic dispenser. For compound a start concentration of 100 μM, 150 nL of compound solution is transferred per well in 11 concentrations in duplicate with serial 1:5 dilutions.
The assay is run using a fully automated robotic system in a darkened room below 100 Lux. 10 μL of KRAS::SOS1 GDP mix is added into columns 1-24 to the 150 nL of compound solution (final dilution in the assay 1:100, final DMSO concentration 1%).
After a 30 minute incubation time 5 μL of bead mix is added into columns 1-23. Plates are kept at room temperature in a darkened incubator. After a further 60 minute incubation, the signal is measured using a PerkinElmer Envision HTS Multilabel Reader using the AlphaScreen specifications from PerkinElmer. Each plate contains the following controls: • diluted DMSO+KRAS::SOS1 GDP mix+bead mix • diluted DMSO+KRAS::SOS1 GDP mix
IC50 values are calculated and analyzed using a 4 parametric logistic model.

[3] = target: CYP3A4 (Homo sapiens (Human), UniProt P08684); test: Time dependent inhibition of CYP3A4 assay (TDI 3A4); assay type: in vitro ADME; conditions: hydroxy-midazolam formation after 30 min relative to 0 min preincubation; 25 uM compound; human liver microsomes; midazolam substrate
Protocol: Time Dependent Inhibition of CYP3A4 Assay (TDI 3A4):
After preincubation, the incubate is diluted 1:10 and the substrate midazolam is added for the main incubation (15 min). The main incubation is quenched with acetonitrile and the formation of hydroxy-midazolam is quantified via LC/MS-MS. The formation of hydroxy-midazolam from the 30 min preincubation relative to the formation from the 0 min preincubation is used as a readout. Values of less than 100% mean that the substrate midazolam is metabolized to a lower extend upon 30 min preincubation compared to 0 min preincubation. In general low effects upon 30 min preincubation are desired (corresponding to values close to 100%)

[4] = Metabolic (microsomal) stability assay, rat liver microsomes (RLM); assay type: in vitro ADME; conditions: 1 μM test compound, 37° C.
Protocol: (§1) Metabolic (Microsomal) Stability Assay: The metabolic degradation of the test compound is assayed at 37° C. with pooled liver microsomes (mouse (MLM), rat (RLM) or human (HLM)). The final incubation volume of 74 μL per time point contains TRIS buffer (pH 7.5; 0.1 M), magnesium chloride (6.5 mM), microsomal protein (0.5 mg/mL for mouse/rat, 1 mg/mL for human specimens) and the test compound at a final concentration of 1 μM. Following a short preincubation period at 37° C., the reactions are initiated by addition of 8 μL beta-nicotinamide adenine dinucleotide phosphate, reduced form (NADPH, 10 mM) and terminated by transfering an aliquot into solvent after different time points. Additionally, the NADPH-independent degradation is monitored in incubations without NADPH, terminated at the last time point by addition of acetonitrile. The quenched incubations are pelleted by centrifugation (1811 g, 5 min). An aliquot of the supernatant is assayed by LC-MS/MS for the amount of parent compound. In vitro intrinsic clearance (CLint, in vitro) is calculated from the time course of the disappearance of the test drug during the microsomal incubation. Each plot is fitted to the first-order elimination rate constant as C(t)=C0*exp(−ke*t), where C(t) and C0 are the concentration of unchanged test drug at incubation time t and that at preincubation and ke is the disappearance rate constant of the unchanged drug. Subsequently, CLint, in vitro (μL min^−1·amount protein) values are converted to CLint, in vitro (mL min^−1·kg^−1) for the whole body. CLint, in vitro data are scaled up using physiological parameters. For better across species comparison the predicted clearance is expressed as percent of the liver blood flow [% QH] in the individual species. In general, high stability (corresponding to low % QH) of the compounds across species is desired.

[5] = Metabolic (microsomal) stability assay, human liver microsomes (HLM); assay type: in vitro ADME; conditions: 1 μM test compound, 37° C.
Protocol: as §1

[6] = Metabolic (microsomal) stability assay, mouse liver microsomes (MLM); assay type: in vitro ADME; conditions: 1 μM test compound, 37° C.
Protocol: as §1

[7] = KRAS G12D::SOS1 AlphaScreen, measured without EDTA unless marked with an asterisk
[8] = Table 20, KRAS::SOS1 AlphaScreen (SOS1 / KRAS G12D)

Sequence of protein-protein interaction between SOS1 and KRAS G12D (Q07889 564-1049, stated change not applied): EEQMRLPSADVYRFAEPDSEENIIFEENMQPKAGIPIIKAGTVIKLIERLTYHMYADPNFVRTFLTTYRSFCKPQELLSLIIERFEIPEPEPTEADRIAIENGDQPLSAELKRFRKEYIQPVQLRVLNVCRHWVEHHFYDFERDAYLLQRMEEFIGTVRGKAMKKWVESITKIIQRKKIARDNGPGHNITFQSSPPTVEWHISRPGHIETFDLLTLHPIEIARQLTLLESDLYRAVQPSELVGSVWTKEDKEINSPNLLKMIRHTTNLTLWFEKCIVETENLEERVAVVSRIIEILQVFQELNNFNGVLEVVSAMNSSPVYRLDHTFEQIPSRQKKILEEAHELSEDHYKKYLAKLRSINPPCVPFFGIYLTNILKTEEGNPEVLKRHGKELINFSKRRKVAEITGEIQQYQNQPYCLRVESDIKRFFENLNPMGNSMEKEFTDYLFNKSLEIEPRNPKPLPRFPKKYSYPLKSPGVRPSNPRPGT
Sequence of CYP3A4 (P08684 whole entry): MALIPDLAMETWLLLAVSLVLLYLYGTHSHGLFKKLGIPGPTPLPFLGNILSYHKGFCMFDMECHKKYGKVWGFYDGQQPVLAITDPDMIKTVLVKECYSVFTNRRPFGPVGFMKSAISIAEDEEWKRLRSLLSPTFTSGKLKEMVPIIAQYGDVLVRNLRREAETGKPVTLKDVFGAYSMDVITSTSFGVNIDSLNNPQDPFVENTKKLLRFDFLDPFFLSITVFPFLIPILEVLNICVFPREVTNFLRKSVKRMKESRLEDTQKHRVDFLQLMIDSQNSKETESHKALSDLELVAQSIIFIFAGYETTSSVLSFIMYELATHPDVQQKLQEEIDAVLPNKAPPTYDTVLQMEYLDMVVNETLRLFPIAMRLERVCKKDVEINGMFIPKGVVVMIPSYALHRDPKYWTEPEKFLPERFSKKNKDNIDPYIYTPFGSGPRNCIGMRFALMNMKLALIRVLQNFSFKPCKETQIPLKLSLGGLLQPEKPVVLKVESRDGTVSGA

IC50 [1] | IC50 [2, 7] | TDI 3A4 [%] [3] | RLM [% QH] [4] | HLM [% QH] [5] | MLM [% QH] [6] | IC50 [2, 8] | Compound
51 nM | 5 nM | 88% | – | – | – | – | Cc1nc(N[C@H](C)c2cccc(C(F)(F)F)c2C)c2cn(C3(C)CCOC3)c(=O)cc2n1 (stereo partly shown) [I-126]
– | 15 nM | 82% | – | – | – | – | Cc1c(=O)n(C2(C(F)F)CC2)cc2c(N[C@H](C)c3cccc(C(F)F)c3F)ncnc12 [I-163]
81 nM | – | – | <23 % QH | <24 % QH | <24 % QH | 14 nM | Cc1nc(N[C@H](C)c2cccc(C(F)(F)F)c2)c2cn(C3(C(F)F)CC3)c(=O)cc2n1 [I-97]
63 nM | – | 87% | – | – | – | 2 nM | Cc1nc(N[C@H](C)c2cccc3c2CCC3(F)F)c2cn(C3(C)CC3)c(=O)cc2n1 [I-57]
79 nM | – | – | <23 % QH | 36 % QH | 59 % QH | 4 nM | Cc1nc(N[C@H](C)c2cccc3c2OCC3(F)F)c2cn(C3(C)CC3)c(=O)cc2n1 [I-101]
– | 23 nM | 97% | – | – | – | – | Cc1nc(N[C@H](C)c2cccc(C(F)(F)F)c2C)c2cn(C3(c4ccccc4)CCOCC3)c(=O)cc2n1 [I-127]
– | – | – | 52 % QH | <24 % QH | <24 % QH | 11 nM | Cc1nc(N[C@H](C)c2cccc(C(F)F)c2F)c2cn(C3CC(F)(F)C3)c(=O)cc2n1 [I-13]
– | – | – | <23 % QH | <24 % QH | 88 % QH | 38 nM | Cc1nc(N[C@H](C)c2cccc(C(F)(F)F)c2)c2cn(C(C)C)c(=O)cc2n1 [I-27]
– | – | – | <23 % QH | 24 % QH | <24 % QH | 2 nM | Cc1nc(N[C@H](C)c2cccc(C(F)(F)C(C)(C)O)c2F)c2cn(C3(C)CC3)c(=O)c(F)c2n1 [I-88]
– | 17 nM | – | <23 % QH | <24 % QH | 54 % QH | – | Cc1c(=O)n([C@H]2C[C@@H]2C(F)F)cc2c(N[C@H](C)c3cccc(C(F)F)c3F)ncnc12 [I-165]
– | – | 93% | – | – | – | 3 nM | Cc1nc(N[C@H](C)c2cccc(C(F)F)c2C)c2cn(C3(C)CC3)c(=O)cc2n1 [I-20]
– | – | – | 56 % QH | 27 % QH | 26 % QH | 21 nM | Cc1nc(N[C@H](C)c2cccc(C(F)F)c2F)c2cn(C3(C)CC(F)(F)C3)c(=O)cc2n1 [I-14]
– | – | 83% | – | – | – | 2 nM | Cc1nc(N[C@H](C)c2cccc(C(F)(F)C(C)(C)O)c2F)c2cn(C3(C(F)F)CC3)c(=O)c(F)c2n1 [I-89]
– | – | – | 49 % QH | <24 % QH | <24 % QH | 31 nM | Cc1nc(N[C@H](C)c2cccc(C(C)(F)F)c2)c2cn(C34CC(F)(C3)C4)c(=O)cc2n1 [I-51]
– | – | – | 40 % QH | <24 % QH | <24 % QH | 6 nM | C[C@@H](Nc1ncnc2cc(=O)n([C@H]3C[C@H](F)C3)cc12)c1cccc(C(F)F)c1F [I-69]
– | – | – | <23 % QH | <24 % QH | 46 % QH | 8 nM | Cc1nc(N[C@H](C)c2cccc(C(F)F)c2F)c2cn(C3(C(F)(F)F)CC3)c(=O)cc2n1 [I-4]
– | – | – | <23 % QH | <24 % QH | 33 % QH | 6 nM | Cc1nc(N[C@H](C)c2cccc(C(C)(F)F)c2F)c2cn(C3(C)CC3)c(=O)c(F)c2n1 [I-86]
– | 12 nM | – | <23 % QH | 31 % QH | 44 % QH | – | Cc1c(=O)n(C2(C)CC2)cc2c(N[C@H](C)c3cccc(C(F)F)c3F)ncnc12 [I-161]
– | – | – | <23 % QH | <24 % QH | <24 % QH | 4 nM | Cc1nc(N[C@H](C)c2cccc(C(F)(F)C(C)(C)O)c2F)c2cn(C34CC(C3)C4)c(=O)c(F)c2n1 [I-90]
– | – | – | <23 % QH | <24 % QH | 30 % QH | 7 nM | C[C@@H](Nc1ncnc2c(F)c(=O)n(C3(C(F)F)CC3)cc12)c1cccc(C(F)F)c1F [I-96]
– | 14 nM | – | <23 % QH | <24 % QH | 53 % QH | – | Cc1c(=O)n(-c2cnn(C)c2)cc2c(N[C@H](C)c3cccc(C(F)F)c3F)ncnc12 [I-172]
– | – | – | 40 % QH | <24 % QH | 41 % QH | 11 nM | Cc1nc(N[C@H](C)c2cccc(C(F)F)c2F)c2cn([C@H](C)C(F)(F)F)c(=O)cc2n1 [I-10]
– | – | 87% | – | – | – | 6 nM | Cc1nc(N[C@H](C)c2cccc(C(F)F)c2C)c2cn(C3CCC3)c(=O)cc2n1 [I-22]
– | – | – | <23 % QH | <24 % QH | <24 % QH | 7 nM | C[C@@H](Nc1ncnc2cc(=O)n(C34CC(F)(C3)C4)cc12)c1cccc(C(F)F)c1F [I-71]

Compound | IC50 [1] | IC50 [2, 7] | TDI 3A4 [%] [3] | RLM [% QH] [4] | HLM [% QH] [5] | MLM [% QH] [6] | IC50 [2, 8]
C[C@@H](Nc1ncnc2cc(=O)n(C3(C)CC3)cc12)c1cccc(C(F)(F)F)c1 [I-75] | – | – | 86% | – | – | – | 15 nM
